Measurements from patent publication US20110124588A1, “SYNERGISTIC ACTIVE INGREDIENT COMBINATIONS” (Bayer Cropscience AG, priority 2008, published 2011).
Like-named read-outs stand apart in the source and are kept apart here.

What was measured:
Spodoptera frugiperda = Spodoptera frugiperda larvae test (sprayed cabbage leaves); type: in vivo, army worm (Spodoptera frugiperda) larvae; conditions: for pest or weed control at 20 g/ha / pest or weed control at 4 g/ha / pest or weed control at 0.16 g/ha / pest or weed control at 0.8 g/ha / pest or weed control at 100 g/ha: Spodoptera frugiperda
Description: The expected activity of a given combination of two active compounds can be calculated as follows, according to S. R. Colby, Weeds 15 (1967), 20-22:
X is the kill rate, expressed as a percentage of the untreated control, when employing active compound A at an application rate of m g/ha or in a concentration of m ppm, Y is the kill rate, expressed as a percentage of the untreated control, when employing active compound B at an application rate of n g/ha or in a concentration of n ppm and E is the kill rate, expressed as a percentage of the untreated control, when employing active compounds A and B at application rates of m and n g/ha or in a concentration of m and n ppm, then
(§1) If the actual kill rate exceeds the calculated value, the kill of the combination is superadditive, i.e. a synergistic effect is present. In this case, the actually observed kill rate must exceed the value calculated using the above formula for the expected kill rate (E).
(§2) solvents: 78 parts by weight of acetone • • 1.5 parts by weight of dimethylformamide emulsifier: 0.5 part by weight of alkylaryl polyglycol ether
To produce a suitable preparation of active compound, 1 part by weight of active compound is mixed with the stated amounts of solvents and emulsifier, and the concentrate is diluted with emulsifier-containing water to the desired concentration.
Cabbage leaves (Brassica oleracea) are treated by spraying with the active compound preparation of the desired concentration and are populated with larvae of the army worm (Spodoptera frugiperda) while the leaves are still moist.
After the desired period of time, the kill in % is determined 100% means that all caterpillars have been killed; 0% means that none of the caterpillars have been killed. The kill rates determined are entered into Colby's formula.

Myzus persicae = Myzus persicae test (spray treatment of infested cabbage leaves); type: in vivo, green peach aphid (Myzus persicae); conditions: for pest or weed control at 0.16 g/ha / pest or weed control at 0.8 g/ha / pest or weed control at 0.032 g/ha / pest or weed control at 0.0064 g/ha / pest or weed control at 4 g/ha: Myzus persicae
Method: as §1, §2
After the desired period of time, the kill in % is determined 100% means that all aphids have been killed; 0% means that none of the aphids have been killed. The kill rates determined are entered into Colby's formula.

Phaedon cochleariae = Phaedon cochleariae larvae test (sprayed cabbage leaves); type: in vivo, mustard beetle (Phaedon cochleariae) larvae; conditions: for pest or weed control at 20 g/ha / pest or weed control at 0.16 g/ha / pest or weed control at 0.8 g/ha / pest or weed control at 100 g/ha / pest or weed control at 4 g/ha: Phaedon cochleariae
Method: as §1
Solvents: 78 parts by weight of acetone • • 1.5 parts by weight of dimethylformamide Emulsifier: 0.5 part by weight of alkylaryl polyglycol ether
After the desired period of time, the kill in % is determined 100% means that all beetle larvae have been killed; 0% means that none of the beetle larvae have been killed. The kill rates determined are entered into Colby's formula.

[1] = 48 h, read-out: Kill in % after 2 d
[2] = 144 h, read-out: Kill in % after 6 d
[3] = 144 h, single active compound, 6 d, read-out: Kill in % after 6 d
[4] = single active compound, 0.8 g/ha, 6 d
[5] = single active compound, 4 g/ha, 6 d
[6] = 24 h, read-out: Kill in % after 1 d
[7] = 48 h, single active compound, 2 d, read-out: Kill in % after 2 d
[8] = 144 h, single active compound, 0.8 g/ha, 6 d, read-out: Kill in % after 6 d
[9] = 144 h, single active compound, 100 g/ha, 6 d, read-out: Kill in % after 6 d
[10] = 144 h, single active compound, 4 g/ha, 6 d, read-out: Kill in % after 6 d
[11] = 48 h, single active compound, 4 g/ha, 2 d, read-out: Kill in % after 2 d
[12] = single active compound, 0.8 g/ha, 2 d

FC(F)(F)c1ccc(OCCCOc2c(Cl)cc(OCC=C(Cl)Cl)cc2Cl)nc1 [pyridalyl]
pest or weed control at 20 g/ha (Spodoptera frugiperda; [1]): 67%

COc1cccc(C(=O)NN(C(=O)c2cc(C)cc(C)c2)C(C)(C)C)c1C [methoxyfenozide]
pest or weed control at 0.16 g/ha (Myzus persicae; [2]): 0% | pest or weed control at 0.8 g/ha (Myzus persicae; [2]): 0% | pest or weed control at 4 g/ha (Spodoptera frugiperda; [2]): 50% | pest or weed control at 20 g/ha (Phaedon cochleariae; [3]): 0%

CCOP(=S)(OCC)Oc1nc(Cl)c(Cl)cc1Cl [chlorpyrifos]
Kill in % after 6 d (Myzus persicae; single active compound, 0.16 g/ha, 6 d): 0% | Kill in % after 6 d (Myzus persicae; [4]): 0% | Kill in % after 6 d (Spodoptera frugiperda; [5]): 33%

C/C(=N\C#N)N(C)Cc1ccc(Cl)nc1 [acetamiprid]
pest or weed control at 0.032 g/ha (Myzus persicae; [2]): 0%

CC1(C)C(C=C(Cl)Cl)C1C(=O)OC(C#N)c1ccc(F)c(Oc2ccccc2)c1 (stereo not drawn) [β-cyfluthrin, betacyfluthrin]
pest or weed control at 0.0064 g/ha (Myzus persicae; [2]): 0% | pest or weed control at 0.032 g/ha (Myzus persicae; [2]): 0% | pest or weed control at 0.16 g/ha (Spodoptera frugiperda; [2]): 0% | pest or weed control at 0.16 g/ha (Phaedon cochleariae; [3]): 0%

N#C/N=C1\SCCN1Cc1ccc(Cl)nc1 [thiacloprid]
pest or weed control at 0.16 g/ha (Myzus persicae; [6]): 0% | pest or weed control at 20 g/ha (Spodoptera frugiperda; [2]): 50% | pest or weed control at 20 g/ha (Phaedon cochleariae; [3]): 50%

N#CCNC(=O)c1cnccc1C(F)(F)F [flonicamid]
pest or weed control at 0.8 g/ha (Myzus persicae; [6]): 0% | pest or weed control at 4 g/ha (Myzus persicae; [6]): 20% | pest or weed control at 0.032 g/ha (Myzus persicae; [2]): 0% | pest or weed control at 20 g/ha (Phaedon cochleariae; [7]): 0% | pest or weed control at 0.8 g/ha (Phaedon cochleariae; [8]): 0% | pest or weed control at 100 g/ha (Phaedon cochleariae; [9]): 0%

O=[N+]([O-])/N=C1\NCCN1Cc1cnc(Cl)s1 [imidaclothiz]
pest or weed control at 4 g/ha (Phaedon cochleariae; [10]): 0%

CN(Cc1ccc(Cl)nc1)C1=CC(=O)OC1 [compound II-29-28, 4-{[(6-chloropyrid-3-yl)methyl](methyl)amino}furan-2(5H)-one]
pest or weed control at 0.16 g/ha (Myzus persicae; 144 h, single active compound, 0.16 g/ha, 6 d, read-out: Kill in % after 6 d): 0%

milbemectin
Kill in % after 6 d (Spodoptera frugiperda; [4]): 0% | Kill in % after 6 d (Phaedon cochleariae; [4]): 0%

CC[S+]([O-])c1c(C#N)nn(-c2c(Cl)cc(C(F)(F)F)cc2Cl)c1N (stereo not drawn) [ethiprole]
pest or weed control at 0.8 g/ha (Myzus persicae; [2]): 0%

COC(=O)N(C(=O)N1COC2(C(=O)OC)Cc3cc(Cl)ccc3C2=N1)c1ccc(OC(F)(F)F)cc1 (stereo not drawn) [indoxacarb]
pest or weed control at 0.8 g/ha (Myzus persicae; [2]): 0% | pest or weed control at 4 g/ha (Phaedon cochleariae; [11]): 0% | pest or weed control at 20 g/ha (Phaedon cochleariae; [7]): 33%

O=[N+]([O-])/N=C1\NCCN1Cc1ccc(Cl)nc1 [imidacloprid]
pest or weed control at 0.16 g/ha (Myzus persicae; [6]): 50% | pest or weed control at 4 g/ha (Phaedon cochleariae; [11]): 0% | pest or weed control at 4 g/ha (Phaedon cochleariae; [10]): 0% | pest or weed control at 20 g/ha (Phaedon cochleariae; [3]): 50%

pyridaben
Kill in % after 6 d (Myzus persicae; [4]): 0% | Kill in % after 6 d (Phaedon cochleariae; [5]): 50%

CNC(=O)c1cc(C#N)cc(C)c1NC(=O)c1cc(Br)nn1-c1ncccc1Cl [cyazypyr, Cyantraniliprole]
pest or weed control at 0.16 g/ha (Myzus persicae; [6]): 0% | pest or weed control at 0.16 g/ha (Phaedon cochleariae; [7]): 17%

CN1COCN(Cc2cnc(Cl)s2)/C1=N/[N+](=O)[O-] [thiamethoxam]
pest or weed control at 0.0064 g/ha (Myzus persicae; [2]): 0% | pest or weed control at 0.032 g/ha (Myzus persicae; [2]): 0% | pest or weed control at 0.8 g/ha (Phaedon cochleariae; [8]): 0%

CC1(C)C(/C=C(\Cl)C(F)(F)F)C1C(=O)OC(C#N)c1cccc(Oc2ccccc2)c1 (stereo not drawn) [lambda-cyhalothrin]
pest or weed control at 0.0064 g/ha (Myzus persicae; [2]): 0% | pest or weed control at 0.032 g/ha (Myzus persicae; [2]): 0% | pest or weed control at 0.8 g/ha (Spodoptera frugiperda; [2]): 67% | pest or weed control at 0.16 g/ha (Phaedon cochleariae; [3]): 17%

O=C(NC(=O)c1c(F)cccc1F)Nc1cc(Cl)c(OC(F)(F)C(F)C(F)(F)F)cc1Cl (stereo not drawn) [lufenuron]
pest or weed control at 100 g/ha (Spodoptera frugiperda; [1]): 0% | pest or weed control at 100 g/ha (Phaedon cochleariae; 48 h, single active compound, 100 g/ha, 2 d, read-out: Kill in % after 2 d): 0%

O=C1C=C(N(Cc2ccc(Cl)nc2)CC(F)F)CO1 [compound II-29-29, 4-{[(6-chloropyrid-3-yl)methyl](2,2-difluoroethyl)amino}furan-2(5H)-one]
pest or weed control at 0.8 g/ha (Myzus persicae; [2]): 50% | pest or weed control at 100 g/ha (Phaedon cochleariae; [9]): 67%

N#Cc1nn(-c2c(Cl)cc(C(F)(F)F)cc2Cl)c(N)c1[S+]([O-])C(F)(F)F (stereo not drawn) [fipronil]
pest or weed control at 0.8 g/ha (Myzus persicae; [2]): 0%

CC1(C)C(C=C(Cl)Cl)C1C(=O)OC(C#N)c1cccc(Oc2ccccc2)c1 (stereo not drawn) [cypermethrin]
pest or weed control at 0.032 g/ha (Myzus persicae; [2]): 0% | pest or weed control at 0.16 g/ha (Myzus persicae; [2]): 0% | pest or weed control at 0.8 g/ha (Spodoptera frugiperda; [2]): 50% | Kill in % after 2 d (Phaedon cochleariae; [12]): 50%

CC(C)N1C(=O)N(c2ccccc2)CS/C1=N\C(C)(C)C [buprofezin]
pest or weed control at 4 g/ha (Myzus persicae; [6]): 0% | pest or weed control at 100 g/ha (Phaedon cochleariae; [9]): 0%

CC1(C)C(C=C(Cl)Cl)C1C(=O)OC(C#N)c1cccc(Oc2ccccc2)c1 (stereo not drawn) [alpha-cypermethrin]
pest or weed control at 0.0064 g/ha (Myzus persicae; [2]): 0% | pest or weed control at 0.16 g/ha (Phaedon cochleariae; [3]): 0% | Kill in % after 2 d (Phaedon cochleariae; [12]): 0%

CCCSP(=O)(OCC)Oc1ccc(Br)cc1Cl (stereo not drawn) [profenofos]
pest or weed control at 20 g/ha (Phaedon cochleariae; [7]): 50%

CN/C(=N\[N+](=O)[O-])NCc1cnc(Cl)s1 [clothianidin]
pest or weed control at 0.16 g/ha (Myzus persicae; [2]): 40% | pest or weed control at 4 g/ha (Phaedon cochleariae; [10]): 50%

COP(=O)(NC(C)=O)SC (stereo not drawn) [acephate]
pest or weed control at 100 g/ha (Phaedon cochleariae; [2]): 0%

N#Cc1ccc(CC(=NNC(=O)Nc2ccc(OC(F)(F)F)cc2)c2cccc(C(F)(F)F)c2)cc1 (mixture of isomers) [metaflumizone]
pest or weed control at 4 g/ha (Spodoptera frugiperda; [10]): 0%

CNC(=O)c1cc(Cl)cc(C)c1NC(=O)c1cc(Br)nn1-c1ncccc1Cl [Rynaxapyr, Chlorantraniliprole]
pest or weed control at 0.032 g/ha (Myzus persicae; [2]): 0% | pest or weed control at 0.16 g/ha (Spodoptera frugiperda; [1]): 33%

CC1(C)[C@H](/C=C(\Cl)C(F)(F)F)[C@@H]1C(=O)O[C@H](C#N)c1cccc(Oc2ccccc2)c1 [gamma-cyhalothrin]
pest or weed control at 0.032 g/ha (Myzus persicae; [2]): 0% | pest or weed control at 0.16 g/ha (Spodoptera frugiperda; [2]): 17% | pest or weed control at 0.16 g/ha (Phaedon cochleariae; [3]): 0%

Cc1cc(C(F)(C(F)(F)F)C(F)(F)F)ccc1NC(=O)c1cccc(I)c1C(=O)NC(C)(C)CS(C)(=O)=O [flubendiamid, flubendiamide]
pest or weed control at 0.8 g/ha (Myzus persicae; [6]): 0% | pest or weed control at 4 g/ha (Myzus persicae; [6]): 0% | pest or weed control at 0.8 g/ha (Spodoptera frugiperda; [2]): 67% | pest or weed control at 20 g/ha (Phaedon cochleariae; [3]): 50%

Nc1nc(N)nc(NC2CC2)n1 [cyromazine]
pest or weed control at 0.16 g/ha (Myzus persicae; [2]): 0% | pest or weed control at 0.8 g/ha (Myzus persicae; [2]): 0% | pest or weed control at 20 g/ha (Phaedon cochleariae; [3]): 0%

O=C(NC(=O)c1c(F)cccc1F)Nc1ccc(Oc2ccc(C(F)(F)F)cc2Cl)cc1F [flufenoxuron]
pest or weed control at 100 g/ha (Spodoptera frugiperda; [1]): 17% | pest or weed control at 0.8 g/ha (Spodoptera frugiperda; [2]): 67% | pest or weed control at 100 g/ha (Phaedon cochleariae; [9]): 0%

O=C(NC(=O)c1ccccc1Cl)Nc1ccc(OC(F)(F)F)cc1 [triflumuron]
pest or weed control at 0.8 g/ha (Spodoptera frugiperda; [2]): 33%

CN1CN(C)/C(=N\[N+](=O)[O-])N(Cc2cnc(Cl)s2)C1 [AKD 1022]
Kill in % after 6 d (Phaedon cochleariae; [4]): 0%
